Assay results: patent US5856359A, “Thyroxine/cyclodextrin complexes and pharmaceutical compositions containing the same” (Hexal AG, priority 1995, dated 1999)
Structures can show the parent of a compound that is named as a salt.

Tests used:
Type in all cases: physicochemical
[1] = Physical stability of aqueous gels and solutions on storage
Description: 150 mg of a water swellable polymer (i.e. Klucel; Hercules Corp. USA) was added.
The aqueous gel containing γ-cyclodextrin solubilized thyroxine was prepared by mixing at room temperature 150 mg of Pionier NP37 (polyacrylicacid) with 10 ml of 10% aqueous γ-cyclodextrin solution containing 300 mg solubilized L-thyroxine-Na.
10 ml of the aqueous Pionier NP37-thyroxine/γ-cyclodextrin formulation was stored in sealed polyethylene bags as well as in capped glass vials under normal laboratory conditions (22° C. exposed to day light) for two weeks and the turbidity of the samples was investigated.

[2] = Aqueous solubility of L-thyroxine sodium salt in the presence of cyclodextrins
Source text: Interaction between L-thyroxine sodium and cyclodextrins in presence of water.
One evidence of the interaction between L-thyroxine and cyclodextrins is that the cyclodextrins increase the aqueous solubility of the thyroxine as shown in Table 1.
Solubility of L-thyroxine sodium salt in the presence of CDs (mg/ml)

[3] = Aqueous solubility of L-thyroxine free acid in the presence of γ-cyclodextrin
Description: This poor solubility can be affected positively by employing γ-cyclodextrin. The effect of γ-cyclodextrin as to the aqueous solubility of thyroxine acid is shown by the results in the table below:
Aqueous solubility of thyroxine free acid in the
presence of γ-cyclodextrin at 25° C. studied on two

For `OC[C@H]1O[C@@H]2O[C@H]3[C@H](O)[C@@H](O)[C@@H](O[C@H]4[C@H](O)[C@@H](O)[C@@H](O[C@H]5[C@H](O)[C@@H](O)[C@@H](O[C@H]6[C@H](O)[C@@H](O)[C@@H](O[C@H]7[C@H](O)[C@@H](O)[C@@H](O[C@H]8[C@H](O)[C@@H](O)[C@@H](O[C@H]9[C@H](O)[C@@H](O)[C@@H](O[C@H]1[C@H](O)[C@H]2O)O[C@@H]9CO)O[C@@H]8CO)O[C@@H]7CO)O[C@@H]6CO)O[C@@H]5CO)O[C@@H]4CO)O[C@@H]3CO` [γ-cyclodextrin], the precipitate formation ([1]; aqueous γ-cyclodextrin solution without L-thyroxine-Na, after one week of storage) was “small amount of white precipitate formation” and the “haze / precipitate formation on storage” value ([1]; clear aqueous γ-cyclodextrin solutions without L-thyroxine-Na, or L-thyroxine-Na/γ-cyclodextrin hydrogels) was “hazy within three days”.
For `N[C@@H](Cc1cc(I)c(Oc2cc(I)c(O)c(I)c2)c(I)c1)C(=O)O` [L-thyroxine sodium salt, Levothyroxine sodium], the solubility ([2]; water with 2-hydroxypropylated-β-cyclodextrin, 2-hydroxypropylated-β-cyclodextrin 1.0%) was 1440 µg/mL, the solubility ([2]; water with 2-hydroxypropylated-β-cyclodextrin, 2-hydroxypropylated-β-cyclodextrin 5.0%) was 2900 µg/mL and the solubility ([2]; water with 2-hydroxypropylated-β-cyclodextrin, 2-hydroxypropylated-β-cyclodextrin 7.0%) was 2740 µg/mL. It also gave a solubility ([2]; water with 2-hydroxypropylated-β-cyclodextrin, 2-hydroxypropylated-β-cyclodextrin 10.0%) of 2770 µg/mL, a solubility ([2]; water with 2-hydroxypropylated-β-cyclodextrin, 2-hydroxypropylated-β-cyclodextrin 12.0%) of 3050 µg/mL and a solubility ([2]; water with 2-hydroxypropylated-β-cyclodextrin, 2-hydroxypropylated-β-cyclodextrin 15.0%) of 3140 µg/mL. For the same molecule, the solubility ([2]; water with 2-hydroxypropylated-β-cyclodextrin, 2-hydroxypropylated-β-cyclodextrin 3.0%) was 3100 µg/mL, the solubility ([2]; water with heptakis-2,6-di-o-methyl-β-cyclodextrin, heptakis-2,6-di-O-methyl-β-cyclodextrin 1.0%) was 3160 µg/mL and the solubility ([2]; water with heptakis-2,6-di-o-methyl-β-cyclodextrin, heptakis-2,6-di-O-methyl-β-cyclodextrin 3.0%) was 5500 µg/mL. The solubility ([2]; water with randomly-methylated-β-cyclodextrin, randomly-methylated-β-cyclodextrin 1.0%) was 3700 µg/mL, the solubility ([2]; water with randomly-methylated-β-cyclodextrin, randomly-methylated-β-cyclodextrin 5.0%) was 8360 µg/mL and the solubility ([2]; water with randomly-methylated-β-cyclodextrin, randomly-methylated-β-cyclodextrin 7.0%) was 9330 µg/mL. It also gave a solubility ([2]; water with randomly-methylated-β-cyclodextrin, randomly-methylated-β-cyclodextrin 10.0%) of 10300 µg/mL, a solubility ([2]; water with randomly-methylated-β-cyclodextrin, randomly-methylated-β-cyclodextrin 12.0%) of 13300 µg/mL and a solubility ([2]; water with randomly-methylated-β-cyclodextrin, randomly-methylated-β-cyclodextrin 15.0%) of 16800 µg/mL. For the same molecule, the solubility ([2]; water with randomly-methylated-β-cyclodextrin, randomly-methylated-β-cyclodextrin 3.0%) was 6150 µg/mL, the solubility ([2]; water with γ-cyclodextrin, γ-cyclodextrin 1.0%) was 5480 µg/mL and the solubility ([2]; water with γ-cyclodextrin, γ-cyclodextrin 5.0%) was 16900 µg/mL. It also gave a solubility ([2]; water with γ-cyclodextrin, γ-cyclodextrin 7.0%) of 26600 µg/mL, a solubility ([2]; water with γ-cyclodextrin, γ-cyclodextrin 12.0%) of 35100 µg/mL and a solubility ([2]; water with γ-cyclodextrin, γ-cyclodextrin 15.0%) of 44200 µg/mL. For the same molecule, the solubility ([2]; water with γ-cyclodextrin, γ-cyclodextrin 3.0%) was 12100 µg/mL, the solubility ([2]; water, 1.0% maltosyl-β-cyclodextrin, Maltosyl-β-cyclodextrin 1.0%) was 2290 µg/mL and the solubility ([2]; water, 2-hydroxypropylated-β-cyclodextrin column, 0% (no CDs)) was 2000 µg/mL. It also gave a solubility ([2]; water, 3.0% maltosyl-β-cyclodextrin, Maltosyl-β-cyclodextrin 3.0%) of 2480 µg/mL, a solubility ([2]; water, 5.0% dimethyl-β-cyclodextrin, heptakis-2,6-di-O-methyl-β-cyclodextrin 5.0%) of 7000 µg/mL and a solubility ([2]; water, 5.0% maltosyl-β-cyclodextrin, Maltosyl-β-cyclodextrin 5.0%) of 2320 µg/mL. It also gave a solubility ([2]; water, 7.0% dimethyl-β-cyclodextrin, heptakis-2,6-di-O-methyl-β-cyclodextrin 7.0%) of 7620 µg/mL, a solubility ([2]; water, 7.0% maltosyl-β-cyclodextrin, Maltosyl-β-cyclodextrin 7.0%) of 2940 µg/mL and a solubility ([2]; water, 10.0% maltosyl-β-cyclodextrin, Maltosyl-β-cyclodextrin 10.0%) of 2730 µg/mL. It also gave a solubility ([2]; water, 12.0% dimethyl-β-cyclodextrin, heptakis-2,6-di-O-methyl-β-cyclodextrin 12.0%) of 12100 µg/mL, a solubility ([2]; water, 12.0% maltosyl-β-cyclodextrin, Maltosyl-β-cyclodextrin 12.0%) of 2800 µg/mL and a solubility ([2]; water, 15.0% dimethyl-β-cyclodextrin, heptakis-2,6-di-O-methyl-β-cyclodextrin 15.0%) of 14200 µg/mL. The solubility ([2]; water, 15.0% maltosyl-β-cyclodextrin, Maltosyl-β-cyclodextrin 15.0%) was 2680 µg/mL, the solubility ([2]; water, Maltosyl-β-cyclodextrin column, 0% (no CDs)) was 2000 µg/mL and the solubility ([2]; water, heptakis-2,6-di-O-methyl-β-cyclodextrin column, 0% (no CDs)) was 2000 µg/mL. The solubility ([2]; water, randomly-methylated-β-cyclodextrin column, 0% (no CDs)) was 2000 µg/mL, the solubility ([2]; water, γ-cyclodextrin column, 0% (no CDs)) was 2000 µg/mL and the “improvement of aqueous solubility of L-thyroxine sodium” value ([2]; γ-cyclodextrin, among unsubstituted cyclodextrins) was “improve the aqueous solubility of L-thyroxine sodium most remarkably”.
In the case of thyroxine, the “effect on the solubility of thyroxine” value [2] is reported as “practically no effect”, the “improvement of aqueous solubility of thyroxine” value [2] is reported as “did not significantly improve the aqueous solubility of thyroxine” and the “solubilizing potency of methylated-β-cyclodextrins for thyroxine versus γ-cyclodextrin” value [2] is reported as “less potent solubilizers of thyroxine, than the chemically non-modified γ-cyclodextrin”.
With `N[C@@H](Cc1cc(I)c(Oc2cc(I)c(O)c(I)c2)c(I)c1)C(=O)O` [L-thyroxine free acid, 0-(4-hydroxy-3,5-diiodophenyl)-3,5-diiodotyrosine] the “enhancement of aqueous solubility of the acid form of thyroxine” value ([3]; cyclodextrin 20% by weight) was “enhanced by about ten-fold”, the solubility ([3]; water with γ-cyclodextrin, γ-cyclodextrin 5 g/100 ml, 25° C., 1-st run, read-out: solubility of thyroxine free acid) was 400 µg/mL and the solubility ([3]; water with γ-cyclodextrin, γ-cyclodextrin 5 g/100 ml, 25° C., 2-nd run, read-out: solubility of thyroxine free acid) was 379 µg/mL. The solubility ([3]; water with γ-cyclodextrin, γ-cyclodextrin 10 g/100 ml, 25° C., 1-st run, read-out: solubility of thyroxine free acid) was 646 µg/mL, the solubility ([3]; water with γ-cyclodextrin, γ-cyclodextrin 10 g/100 ml, 25° C., 2-nd run, read-out: solubility of thyroxine free acid) was 652 µg/mL and the solubility ([3]; water with γ-cyclodextrin, γ-cyclodextrin 12 g/100 ml, 25° C., 1-st run, read-out: solubility of thyroxine free acid) was 765 µg/mL. The solubility ([3]; water with γ-cyclodextrin, γ-cyclodextrin 12 g/100 ml, 25° C., 2-nd run, read-out: solubility of thyroxine free acid) was 800 µg/mL, the solubility ([3]; water with γ-cyclodextrin, γ-cyclodextrin 15 g/100 ml, 25° C., 1-st run, read-out: solubility of thyroxine free acid) was 1020 µg/mL and the solubility ([3]; water with γ-cyclodextrin, γ-cyclodextrin 15 g/100 ml, 25° C., 2-nd run, read-out: solubility of thyroxine free acid) was 1000 µg/mL. The solubility ([3]; water with γ-cyclodextrin, γ-cyclodextrin 20 g/100 ml, 25° C., 1-st run, read-out: solubility of thyroxine free acid) was 1390 µg/mL, the solubility ([3]; water with γ-cyclodextrin, γ-cyclodextrin 20 g/100 ml, 25° C., 2-nd run, read-out: solubility of thyroxine free acid) was 1440 µg/mL and the solubility ([3]; water, without cyclodextrin, read-out: aqueous solubility of the free acid form of L-thyroxine) was 110 to 150 µg/mL. It also gave a solubility ([3]; water, γ-cyclodextrin 0 g/100 ml, 25° C., 1-st run, read-out: solubility of thyroxine free acid) of 110 µg/mL and a solubility ([3]; water, γ-cyclodextrin 0 g/100 ml, 25° C., 2-nd run, read-out: solubility of thyroxine free acid) of 150 µg/mL.
